In patent US12545677B2, “Compounds useful as factor XIa inhibitors” (JANSSEN PHARMACEUTICA NV, priority 2020, dated 2026):

How the values were obtained:
[1] = Reactive metabolite study in human liver microsomes (GSH/KCN trapping); type: in vitro ADME; conditions: human liver microsomes 1 mg/mL protein, 10 μM substrate, NADPH, 1 mM GSH, 1 mM KCN, 37° C., 60 min
Protocol: Reactive Metabolite Study in Human Liver Microsomes
The compound of formula (I-A) was assessed for bioactivation in HLM using GSH and KCN as trapping agents. The compound was incubated in human liver microsomes supplemented with NADPH, KCN and GSH at 37° C. for 60 min. The incubations were conducted with 1 mg/mL protein, 10 μM substrate, 1 mM GSH (non-labeled and labeled at 3:1) and KCN 1 mM (non-labeled and labeled at 3:1) in a total volume of 1 mL. Nefazodone (10 μM) was incubated under the same conditions as a positive control. After incubations, protein precipitation was performed for extraction of the metabolites by mixing with 5× volume of acetonitrile. The proteins were pelleted by centrifugation (3000 rpm, 10 minutes, 4° C.) and the supernatants were transferred into clean test tubes and evaporated to dryness under a gentle stream of nitrogen. The resulting residues were reconstituted in 300 μL of solvent mixture of water:acetonitrile (8:2 v/v) containing 0.1% formic acid prior to filtration using 0.45 μm nylon filter at 10,000×g at room temperature for 3 minutes. The filtrate was transferred to a 96-well plate for liquid chromatography/tandem mass spectrometric (LC-MS/MS) analysis.
LC-MS/MS analysis: Agilent 1260 Infinity UHPLC was coupled to a Bruker Q-TOF. The mass spectrometers were operated in a positive electrospray ionization mode. […]

[2] = tested on: human hepatocytes; assay: In vitro metabolism in human cryopreserved hepatocytes; type: in vitro ADME
Protocol: In Vitro Metabolism of in Human Cryopreserved Hepatocytes
The human hepatocytes used for in vitro metabolism of the compound of formula (I-A) were purchased from Bioreclamation IVT (Westbury, NY); cryopreserved human hepatocytes (lot number: UYG).
Cryopreserved hepatocytes were rapidly thawed […] vials were placed in a 37° C. water bath for approximately 90 sec, then immediately added to pre-warmed hepatocyte thawing media. The cells were resuspended within the media and then centrifuged at 700×g for 7 minutes at room temperature.
The supernatant was discarded, and the cells were resuspended in 2 mL of Krebs-Henseleit buffer containing 12.5 mM HEPES pH 7.4 (KHB). Cell viability and yield were determined by Trypan Blue exclusion. The hepatocytes were then diluted in KHB to a cell concentration of 2×10^6 cells/mL (500 μL/well in 10 mL glass tubes). The tubes were placed on a rotary shaker in a humidifier incubator supplied with 5% CO2 and allowed 15 minutes acclimation at 37° C. prior to use. The compound of formula (I-A) or positive control, diclofenac (10 μM), in KHB was then added to the hepatocytes to achieve a final concentration of 10 μM and cell concentration of 1×10^6 cells/mL (1000 μL final incubation volume). Cells were incubated for zero or 3 hours. At the end of the incubation period, the cells were quenched with 6-volumes of ice-cold acetonitrile containing 0.02% formic acid, vortexed and sonicated (5 min). Precipitated proteins were pelleted by centrifugation (3000 rpm, 10 minutes, 4° C.) and the supernatant was transferred to borosilicate tubes and evaporated to dryness under a gentle stream of nitrogen.
The resulting residue after evaporation was reconstituted in 250 μL of water:acetonitrile (9:1 v/v) containing 0.01% formic acid with sonication and vortexing to aid solubilization of drug-derived materials prior to filtration using 0.45μ nylon filter at 10,000×g at room temperature for 10 minutes. The filtrate was transferred to a 96-well plate for liquid chromatography/ultraviolet/mass spectrometry (LC-UV/MS) analysis.
LC/UV/MS (Liquid Chromatography/Ultraviolet/Mass Spectrometry)
LTQ/Orbitrap (Thermo Scientific, Inc., Bremen, Germany) was carried out by data-dependent accurate mass measurements at resolving powers of 15,000 for full scan MS and 7,500 for MS^2 (also known as MS/MS or tandem mass spec) under single ion locked mass mode.
Quantification of the unchanged drug and its metabolites was carried out by integration of the individual chromatographically separated UV peaks and provided the percentage of total peak area.

Row | Structure (SMILES) | formation of GSH adducts or KCN adducts [1] | turnover in human hepatocytes ([2]; 10 μM, 1×10^6 cells/mL, 3 hours) | major metabolic softspot ([2]; human hepatocytes) | metabolites generated from the incubation ([2]; human hepatocytes, 10 μM, 3 hours) | identified as metabolite of the compound of formula (I-A) ([2]; human hepatocytes, carboxylic acid metabolite)
1 | O=C1C=C(c2c(-n3cnnn3)ccc(Cl)c2F)C[C@H]2CC[C@@H](c3ncc(-c4ccnc(CO)c4F)[nH]3)N12 [Compound of formula (I-A), (3S,8aR)-7-(3-Chloro-2-fluoro-6-(1H-tetrazol-1-yl)phenyl)-3-(5-(3-fluoro-2-(hydroxymethyl)pyridin-4-yl)-1H-imidazol-2-yl)-2,3,8,8a-tetrahydroindolizin-5(1H)-one] | did not form GSH adducts or KCN adducts | low turnover | (3-fluoropyridin-2-yl) methanol moiety | three oxidative and two glucuronide metabolites | 
2 | O=C(O)c1nccc(-c2cnc([C@@H]3CC[C@@H]4CC(c5c(-n6cnnn6)ccc(Cl)c5F)=CC(=O)N43)[nH]2)c1F [Compound of formula (II-A), 4-(2-((3S,8aR)-7-(3-chloro-2-fluoro-6-(1H-tetrazol-1-yl)phenyl)-5-oxo-1,2,3,5,8,8a-hexahydroindolizin-3-yl)-1H-imidazol-5-yl)-3-fluoropicolinic acid] |  |  |  |  | a metabolite in human hepatocytes
